# Experimental data published in patent publication US20230133064A1, “T CELL MANUFACTURING PROCESS” (Adaptimmune Limited, priority 2020, published 2023).
# Key:
# Type in all cases: cell-based, human
# [1] = tested on: T-cells stimulated with MAGEA4-positive cell line A375; assay: Antigen-stimulated IFNγ release by ELISA, expanded T-cells co-cultured with A375 for 48 hours
# Procedure: Function of expanded T-cells was evaluated based on the levels of cytokine release by expanded T-cells following antigen-stimulation with the MAGEA4-expressing cell line, A375. A375 MAGEA4 positive target cells were counted using automated cell counter and seeded in a 96 well U-bottom plate at 30,000 viable nucleated cells (VNC) per well, in 100 uL volume per well, one day prior to T-cell stimulation and incubated overnight at 37° C., 5% CO2. Wells that were used as “T cells alone” control, received 100 uL R10 media (RPMI medium with 10% FBS and 1% Penicillin/Streptomycin) only. Following overnight incubation of target cells, harvested and frozen T-cells were thawed at 37° C. in the water bath and washed with R10 media. Cells were rested in R10 media at a density of 2×10^6 VNC/mL for 2 hours at 37° C., 5% CO2. After 2-hour rest, T-cells were counted using automated cell counter, and cultures were normalised to 35% transduction efficiency for all donors combining calculated amount of transduced and non-transduced VNC for each condition. […] Colorimetric read-out was analysed (BMG LABTECH FLUOstar Omega plate reader) at OD 450. […] For the cytokine release assays, the target and effector cells were co-cultured for 48 hours then the supernatants were collected and analysed for IFN gamma levels by ELISA. […]
# T cells [2] = assay: Memory phenotype flow cytometry (CCR7/CD45RA) of transduced CD8+ T cells at day 10 harvest
# Excerpt: All cells were expanded and transduced, using a static expansion system, (scalable G-Rex®). Cryopreserved leukapheresis starting materials from healthy donors or cancer patients were thawed, washed, activated with CD3/CD28 magnetic Dynabeads, and CD3+ positive fraction was magnetically separated. The starting leukapheresis material was similar across the healthy donors. CD3+ cells ranged from 44-64%, all with an increased purity of 79-87% following positive isolation using anti CD3/CD28 Dynabeads. CD3+ phenotyping identified a range of stem cell memory (SCM) markers (CCR7+/CD45RA+) ranging from 11.6-57% in the CD8+ compartment between individuals. Enriched CD3+ T cells were seeded based on total nucleated cell (TNC) counts at 1.5×10^6 TNC/cm^2 density in the G-Rex® static cell expansion system device, in 10% of final culture volume using TexMACS+5% human AB serum (HABS) supplemented with 100 IU/ml IL-2. Transduction with vector expressing a heterologous TCR (recognising MAGE-A4) was performed 18-26 hours post addition of CD3/CD28 Dynabeads to the cells, using lentivirus (LV) vector at a MOI of 0.45. Media was then added to top up to the final culture volume, this was performed 17-24 hours post transduction with TexMACS+5% HABS+500 IU/ml IL-2. Cells were then incubated at 37° C., 5% CO2 for a further 8 days. MK-2206 was added to the media at defined intervals; in day 0 seeding media and supplemented in media used for day 2 media addition, or solely supplemented in media for day 2 media addition. The concentration of the compound varied for each experiment, 10 uM, 7.5 uM, 5 uM, 2.5 uM, 2 uM, 1.5 uM, 1 uM, 0.5 uM, 0.25 uM, 0.1 uM, 0.05 uM as dictated in the following examples. T cells were harvested 10 days post seeding. After bead removal, T-cells were counted by automated cell analysis (with […]). Harvested cells were then frozen for later phenotypic and functional analysis as described. Flow cytometry was performed on healthy donor material on day 10 harvest from the described process to determine Memory Phenotype markers of cultured cells using CCR7 and CD45RA staining
# T cells [3] = assay: T cell expansion in G-Rex static culture, TNC counts at day 10 harvest (ViCELL)
# Excerpt: All cells were expanded and transduced, using a static expansion system, (scalable G-Rex®). Cryopreserved leukapheresis starting materials from healthy donors or cancer patients were thawed, washed, activated with CD3/CD28 magnetic Dynabeads, and CD3+ positive fraction was magnetically separated. The starting leukapheresis material was similar across the healthy donors. CD3+ cells ranged from 44-64%, all with an increased purity of 79-87% following positive isolation using anti CD3/CD28 Dynabeads. CD3+ phenotyping identified a range of stem cell memory (SCM) markers (CCR7+/CD45RA+) ranging from 11.6-57% in the CD8+ compartment between individuals. Enriched CD3+ T cells were seeded based on total nucleated cell (TNC) counts at 1.5×10^6 TNC/cm^2 density in the G-Rex® static cell expansion system device, in 10% of final culture volume using TexMACS+5% human AB serum (HABS) supplemented with 100 IU/ml IL-2. Transduction with vector expressing a heterologous TCR (recognising MAGE-A4) was performed 18-26 hours post addition of CD3/CD28 Dynabeads to the cells, using lentivirus (LV) vector at a MOI of 0.45. Media was then added to top up to the final culture volume, this was performed 17-24 hours post transduction with TexMACS+5% HABS+500 IU/ml IL-2. Cells were then incubated at 37° C., 5% CO2 for a further 8 days. MK-2206 was added to the media at defined intervals; in day 0 seeding media and supplemented in media used for day 2 media addition, or solely supplemented in media for day 2 media addition. The concentration of the compound varied for each experiment, 10 uM, 7.5 uM, 5 uM, 2.5 uM, 2 uM, 1.5 uM, 1 uM, 0.5 uM, 0.25 uM, 0.1 uM, 0.05 uM as dictated in the following examples. T cells were harvested 10 days post seeding. After bead removal, T-cells were counted by automated cell analysis (with ViCELL). Harvested cells were then frozen for later phenotypic and functional analysis as described.
# Healthy donor material (leukapheresis material comprising white blood cells separated from a donor sample of blood) was processed for culture in static expansion (G-Rex device) following the aforementioned process for a 10 day duration. The cells were cultured with MK-2206 (1.25, 2.5, 5.0, 10 uM) added to cultures on day 0+day 2 or day 2 alone (with the day 2 media addition). On harvest, Total Nucleated Cell (TNC) counts were performed using an automated cell counter (ViCELL) to provide expansion data, and flow cytometry performed to determine phenotype. The harvested cultures were frozen and later thawed for functional assessment, an antigen stimulated cytokine release assay (1.3 described above).
# The concentration of MK-2206 was tested in further titratration from 0.05 to 10 uM to fully determine optimal dosing and day 0(+2) and day 2 alone are both assessed to determine the optimal time of addition. Again, expansion, phenotype and cytokine production data has been assessed. An additional four donors were tested at the varying concentrations, to provide a full titration range in this study, 10 uM to 0.05 uM. All donors were tested in 10 M G-Rex following the described process and were harvested on Day 10. Expansion data considered the timepoint of addition of MK-2206; Day 0+2 and Day 2 alone.
# [4] = Day 0+2 addition, all concentrations 0.05-10 uM, across donors, FIG. 3A
smiles,measurement,setting,value
NC1(c2ccc(-c3nc4ccn5c(=O)[nH]nc5c4cc3-c3ccccc3)cc2)CCC1 [MK-2206],IFN gamma production following antigen stimulation versus untreated control,"[1]; day 2 addition of MK-2206, FIG. 5",highest increase
same,IFN gamma production following antigen stimulation,"[1]; increasing MK-2206 concentration, >5 uM, FIG. 5",decrease
same,CCR7+CD45RA+ populations at harvest compared to the untreated control,"T cells [2]; added on day 0+2 and day 2 alone, CD3+/Dextramer+/CD8+ compartment, FIG. 4",increased
same,EMRA population versus untreated control,T cells [2]; all concentrations tested,remains similar to the untreated control
same,CD62L expression,T cells [2]; cells cultured with MK-2206,increase
same,CCR7−CD45RA− effector memory (EM) populations,"T cells [2]; cells cultured with MK-2206, FIG. 4",decrease
same,expansion (TNC counts),"T cells [3]; 10 uM, all timepoints for addition, FIG. 2",reduced expansion
same,TNC yield,"T cells [3]; Day 0(+2) addition, FIG. 2",low yield
same,limit of expansion decrease (fold change to untreated control),T cells [3]; [4],0.15 fold
same,limit of expansion increase (fold change to untreated control),T cells [3]; [4],1.5 fold
same,impact on expansion,"T cells [3]; Day 2 addition, 0.05-10 uM, FIG. 3B",no negative impact on expansion
same,concentration providing peak expansion,"T cells [3]; Day 2 addition, 3 donors, FIG. 3B",0.5 µM
same,expansion response relative to control,"T cells [3]; Day 2 addition, all conditions, FIG. 3B",1-2 fold
same,T cell expansion,"T cells [3]; MK-2206 added on Day 2, after activation on day 0 and transduction on day 1",Improved T cell expansion
same,TNC yield,"T cells [3]; day 2 alone addition, with exception of 10 uM, FIG. 2",improved TNC yield
same,expansion (TNC counts) compared to the untreated control,"T cells [3]; healthy donor material, lower concentrations of MK-2206 (1.25-10 uM tested), day 10 harvest, FIG. 2",increased expansion
